Results on one compound are retold here after patent US9029383B2, “Methods of treatment of skin ulcers” (The Trustees Of The University of Pennsylvania, priority 2007, dated 2015).

Entries after “also recorded” stand apart in the source; their conditions may differ.

Experiment [1] is described as follows: Body weight and behaviour of DM/HC pigs during the study period. It is filed as in vivo, pig. On the procedure: (§1) At one month after stabilization of cholersterol at 250-800 mg/dl, the animals were randomized into two experimental groups, DM/HC (hyperglycemia and hypercholesterolemia) group with no treatment and treatment group (10 mg/kg/day of SB-480848, also referred to as 1-(N-(2-(diethylamino)ethyl)-N-(4-(4-trifluoromethylphenyl)benzyl)-aminocarbonylmethyl)-2-(4-fluorobenzyl)thio-5,6-trimethylenepyrimidin-4-one). The animals were then placed into two separate rooms with control animals in one room and treated animals in the other room in order to ensure that no drug would be found in the control animals. The animals were visually inspected twice daily, the visual inspections being between 8-10 hours apart, for skin abscess, especially in the leg and foot. To be considered an abscess, the minimal abscess size was 1 mm with redness in the surrounding area. When abscesses were detected, treatment was applied. Treatment comprise assessing the size and depth of abscess, draining and cleaning the abscess of dead tissue and cells, washing with Betadine, drying and bandaging with sterile dressing, and oral regime of antibiotics. Treatment was applied daily till the infection in the open sore was cleared (absence of pus) and the open sore healed by shrinkage in size and the opening was completely closed. Cultures of the abscess were carried out to determine the pathogen responsible for the infection. […]

In experiment [2] the test system is DM/HC pigs (skin abscess). Briefly: Skin abscess occurrence in diabetic/hypercholesterolemic (DM/HC) pig model. The following applies: for Development of skin abscess over the treatment period: DM/HC pigs treated for 6 months; for Further or recurring abscess after initiation of daily inhibitor treatment in pigs that already had an abscess: pigs #948 and #963, daily single dose. It is filed as in vivo. Here is the method: A diabetic/diabetic hypercholestrolemic pig model (DM/HC) was developed that mimics human-like diabetes and human-like atherosclerosis. Farm pigs weighing 25-30 kg and aged ˜4 months were made diabetic with a single intravenous injection of 125 mg/kg of streptozotocin (Sicor Pharmaceuticals, Irvine, Calif.). After stabilized for 1-2 weeks, the animals with elevated levels of plasma glucose (>150 mg/dl) were fed with atherogenic (high-fat) diet as shown in Table 1 (Animal Specialties, Quakertown, Pa.) to achieve a cholesterol level of approximately 250-800 mg/dl.
For the 0.5% cholesterol diet the components are similar with the exception of 0.5% cholesterol and 20% lard. The animals were Yorkshire pigs that were castrated males at the age of […] and were obtained from Archer Farms, Darlington, Md. These feeds were prepared by Animal Specialties and Provisions, LLC, Quakertown, Pa. USA.
On days 1-2, animals were fed normal chow, followed by on days 3-14 animals were fed a diet of 0.5% cholesterol, 2% lard and on day 14, cholesterol levels were measured and the diet adjusted accordingly to increase to 2% cholesterol, 10% lard if cholesterol is <300 mg/dl. Following induction of DM/HC, cholesterol was measured until cholesterol levels are stable between 300 and 800 mg/dl, and following cholesterol stabilization, cholesterol was measured monthly. If cholesterol levels were unstable following initial stabilization phase, the diet of the animal was returned to the initial two-week measurement schedule. Monthly cholesterol levels were determined, including levels of total cholesterol, LDL, HDL, VLDL and triglycerides.
as §1
Two diabetic/hypercholesterolemic groups were evaluated: 1. […] In addition blood cholesterol levels were maintained between 300 and 800 mg/dl in experimental animals, this range having been determined to provide a better test model. Blood cholesterol levels were monitored in all animals on a bimonthly basis, as shown in Table 4 and adjustments were made to the fat content of the feed accordingly, as shown in Table 2. […]

As to `CCN(CC)CCN(Cc1ccc(-c2ccc(C(F)(F)F)cc2)cc1)C(=O)Cn1c(SCc2ccc(F)cc2)nc(=O)c2c1CCC2` [SB-480848, 1-(N-(2-(Diethylamino)ethyl)-N-(4-(4-trifluoromethylphenyl)benzyl)aminocarbonylmethyl)-2-(4-fluorobenzyl)thio-5,6-trimethylenepyrimidin-4-one], the “Responsiveness and activity compared to control animals” value in experiment [1] (observed during the study period) was “more responsive to external stimuli”. In addition, the Weight in experiment [1] (treated animals at end of study, from a baseline of 26.9 kg, control 50.9 kg from 30.3 kg) was 62.5 kg. Moreover, the figures for the “Development of skin abscess over the treatment period” value in experiment [2] and in experiment [2] (listed as Lp-PLA2 inhibitor) were “no pig developed any skin abscesses” and “no one developed any abscess”, respectively. The results for the “Further or recurring abscess after initiation of daily inhibitor treatment in pigs that already had an abscess” value in experiment [2] and in experiment [2] (listed as Lp-PLA2 inhibitor) were “No further abscess developed; also recorded: remained skin abscesses-free” and “No further abscess developed”, respectively. Moreover, the “Average healing time of treated abscesses” value in experiment [2] (pigs #948 and #963 of the treated group, abscesses developed before start of inhibitor, standard wound care) is 1-2 weeks.
